Measurements published in US20070149576A1, “Means for protecting against technical materials” (priority 2003, published 2007).

Tests used:
[1] = tested on: Reticulitermes santonensis (termite); experiment: EN 117 determination of the activity threshold against Reticulitermes santonensis (laboratory test); type: in vivo; details: for activity threshold against termites, EN 117 (with EN 84): after EN 84 leaching stress
[2] = tested on: Hylotrupes bajulus (house longhorn beetle); experiment: EN 46 determination of the prophylactic effect on egg larvae of Hylotrupes bajulus (laboratory test); type: in vivo; details: for activity threshold against wood-destroying beetles, EN 46 (with EN 84): after EN 84 leaching stress

With `CCOC(=O)NCCOc1ccc(Oc2ccccc2)cc1` [fenoxycarb] the “activity threshold against termites, EN 117 (with EN 84)” value [1] was “ineffective”, the “activity threshold against termites, EN 117 (without stress)” value ([1]; without stress) was “ineffective” and the “activity threshold against wood-destroying beetles, EN 46 (with EN 84)” value [2] was 0.050 g/m^2. The “activity threshold against wood-destroying beetles, EN 46 (without stress)” value [2] was 0.005 g/m^2.

`CC1(C)C(C=C(Cl)Cl)C1C(=O)OC(C#N)c1ccc(F)c(Oc2ccccc2)c1` (stereo not shown) [cyfluthrin] was tested, and the “activity threshold against termites, EN 117 (with EN 84)” value [1] was 10-20 g/m^3, the “activity threshold against wood-destroying beetles, EN 46 (with EN 84)” value [2] was less than 0.006 g/m^2 and the “activity threshold against wood-destroying beetles, EN 46 (without stress)” value [2] was less than 0.006 g/m^2.
